Source: ChEMBL document CHEMBL1201862, “PubChem BioAssay data set” (2004)
Activity calls are given as the source filed them.

Tests used:
[1] = biological target: T1, Replicative DNA helicase DnaB (Mycobacterium tuberculosis, UniProt P9WMR3); assay: DnaB intein splicing inhibitors, dose response, biochemical, cell-free fluorescence (AID 449749); format: functional
T1 sequence (P9WMR3 whole entry): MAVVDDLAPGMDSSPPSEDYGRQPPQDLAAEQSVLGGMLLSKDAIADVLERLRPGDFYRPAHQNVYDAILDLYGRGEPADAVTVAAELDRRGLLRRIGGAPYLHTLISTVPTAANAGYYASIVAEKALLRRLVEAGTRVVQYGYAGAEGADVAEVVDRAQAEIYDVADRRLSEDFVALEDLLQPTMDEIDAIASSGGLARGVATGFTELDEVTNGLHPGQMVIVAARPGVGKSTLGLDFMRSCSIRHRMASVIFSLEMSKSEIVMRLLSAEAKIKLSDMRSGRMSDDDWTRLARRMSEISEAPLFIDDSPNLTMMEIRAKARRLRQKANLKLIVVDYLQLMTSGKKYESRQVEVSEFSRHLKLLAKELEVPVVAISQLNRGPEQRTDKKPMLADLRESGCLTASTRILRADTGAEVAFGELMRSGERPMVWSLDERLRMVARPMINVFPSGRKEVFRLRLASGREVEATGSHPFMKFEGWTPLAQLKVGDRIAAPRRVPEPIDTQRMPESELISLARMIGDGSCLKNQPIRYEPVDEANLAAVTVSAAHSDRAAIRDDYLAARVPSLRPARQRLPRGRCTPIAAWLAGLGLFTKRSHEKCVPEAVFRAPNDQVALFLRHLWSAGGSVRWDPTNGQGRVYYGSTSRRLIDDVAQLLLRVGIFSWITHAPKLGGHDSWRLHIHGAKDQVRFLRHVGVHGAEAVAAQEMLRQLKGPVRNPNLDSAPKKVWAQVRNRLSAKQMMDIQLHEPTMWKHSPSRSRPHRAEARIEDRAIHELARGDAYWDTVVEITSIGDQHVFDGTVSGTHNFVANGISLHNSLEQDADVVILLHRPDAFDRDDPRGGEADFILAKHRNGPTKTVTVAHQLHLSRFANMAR

Protein RecA = biological target: T2, Protein RecA (Mycobacterium tuberculosis, UniProt P9WHJ3); assay: Fluorescence Cell-Free Homogeneous Dose Retest to Identify Inhibitors of RecA-Intein Splicing Activity. [Related pubchem assays (depositor defined):AID2097, AID2223, AID489010, AID492950]; format: functional
T2 sequence (P9WHJ3 whole entry): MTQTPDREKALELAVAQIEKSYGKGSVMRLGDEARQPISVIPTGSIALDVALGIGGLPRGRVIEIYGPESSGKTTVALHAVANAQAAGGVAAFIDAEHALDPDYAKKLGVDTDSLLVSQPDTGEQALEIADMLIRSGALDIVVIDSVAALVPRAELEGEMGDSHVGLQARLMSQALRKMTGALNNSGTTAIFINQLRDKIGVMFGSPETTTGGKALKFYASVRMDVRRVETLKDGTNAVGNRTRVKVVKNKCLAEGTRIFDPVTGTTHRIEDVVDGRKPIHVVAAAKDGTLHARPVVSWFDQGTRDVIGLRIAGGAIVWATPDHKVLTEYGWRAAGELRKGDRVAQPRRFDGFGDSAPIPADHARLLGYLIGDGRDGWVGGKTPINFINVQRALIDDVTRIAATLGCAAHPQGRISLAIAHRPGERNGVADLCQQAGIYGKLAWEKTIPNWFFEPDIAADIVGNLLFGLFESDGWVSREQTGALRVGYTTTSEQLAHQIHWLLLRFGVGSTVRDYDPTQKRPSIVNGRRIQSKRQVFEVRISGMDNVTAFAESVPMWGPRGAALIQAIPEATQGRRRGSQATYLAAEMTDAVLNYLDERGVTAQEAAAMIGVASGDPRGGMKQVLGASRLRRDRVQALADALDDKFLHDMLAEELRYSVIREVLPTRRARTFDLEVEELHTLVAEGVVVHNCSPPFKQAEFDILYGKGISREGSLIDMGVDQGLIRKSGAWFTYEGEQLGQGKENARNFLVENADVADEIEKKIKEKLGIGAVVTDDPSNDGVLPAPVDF

BJ [2] = assay: cytotoxicity toward BJ-TERT fibroblasts, dose response, cell-based, RAS-independent, luminescence (AID 1933); format: functional; conditions: Homo sapiens
BJ [3] = assay: cells; format: functional, cell-based; conditions: Homo sapiens
BJ [4] = assay: cytotoxicity toward BJ-TERT-LT-ST fibroblasts, dose response, cell-based, RAS-independent, luminescence (AID 1935); format: functional; conditions: Homo sapiens;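 also: BJ fibroblasts immortalized with TERT plus LT and ST oncogenes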
[5] = cytotoxicity toward DRD oncogenic fibroblasts, dose response, cell-based, non-viral oncogenic, luminescence (AID 1934); format: functional; conditions: Homo sapiens
[6] = HEp-2 cell cytotoxicity, dose response, cytotoxicity control for RSV inhibitor project, HTS (AID 2410); format: functional; conditions: human respiratory syncytial virus
Cytochrome P450 2D6 = Cytochrome P450 2D6 (Homo sapiens, UniProt P10635);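 also: CYP2D6 member of a cytochrome P450 panel assay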
Sequence of Cytochrome P450 2D6 (P10635 whole entry): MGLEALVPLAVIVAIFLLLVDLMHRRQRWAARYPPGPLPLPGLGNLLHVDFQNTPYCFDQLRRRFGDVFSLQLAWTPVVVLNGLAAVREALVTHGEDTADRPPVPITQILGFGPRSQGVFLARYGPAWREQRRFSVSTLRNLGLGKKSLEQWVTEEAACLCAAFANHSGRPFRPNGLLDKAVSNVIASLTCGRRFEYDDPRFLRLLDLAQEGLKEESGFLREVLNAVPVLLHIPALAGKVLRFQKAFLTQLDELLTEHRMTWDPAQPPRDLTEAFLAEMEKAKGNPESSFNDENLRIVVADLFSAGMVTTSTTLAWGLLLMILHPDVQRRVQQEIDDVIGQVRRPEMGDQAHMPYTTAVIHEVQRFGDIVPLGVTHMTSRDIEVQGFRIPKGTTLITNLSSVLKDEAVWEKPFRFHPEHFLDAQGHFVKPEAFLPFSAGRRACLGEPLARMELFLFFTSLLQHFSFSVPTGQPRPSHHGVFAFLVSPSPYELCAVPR

Cytochrome P450 1A2 = biological target: T3, Cytochrome P450 1A2 (Homo sapiens, UniProt P05177);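 also: PubChem cytochrome P450 panel assay, CYP1A2 panel member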
T3 sequence (P05177 whole entry): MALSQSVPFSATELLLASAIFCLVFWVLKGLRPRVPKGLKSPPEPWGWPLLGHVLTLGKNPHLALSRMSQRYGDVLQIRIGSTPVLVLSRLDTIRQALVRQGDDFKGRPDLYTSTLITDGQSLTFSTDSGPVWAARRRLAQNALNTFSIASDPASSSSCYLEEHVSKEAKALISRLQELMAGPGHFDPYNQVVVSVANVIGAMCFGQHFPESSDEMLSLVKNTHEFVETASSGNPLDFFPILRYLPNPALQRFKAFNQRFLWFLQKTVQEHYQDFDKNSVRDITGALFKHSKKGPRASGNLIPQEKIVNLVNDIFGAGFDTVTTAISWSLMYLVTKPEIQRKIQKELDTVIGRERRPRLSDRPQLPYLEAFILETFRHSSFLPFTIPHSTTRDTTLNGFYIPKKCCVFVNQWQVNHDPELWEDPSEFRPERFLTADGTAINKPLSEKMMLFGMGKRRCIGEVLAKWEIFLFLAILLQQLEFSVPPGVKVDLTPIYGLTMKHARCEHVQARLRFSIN

Cytochrome P450 3A4 = Cytochrome P450 3A4 (Homo sapiens, UniProt P08684);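 also: CYP3A4 tested as one member of a cytochrome P450 panel screen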
Sequence of Cytochrome P450 3A4 (P08684 whole entry): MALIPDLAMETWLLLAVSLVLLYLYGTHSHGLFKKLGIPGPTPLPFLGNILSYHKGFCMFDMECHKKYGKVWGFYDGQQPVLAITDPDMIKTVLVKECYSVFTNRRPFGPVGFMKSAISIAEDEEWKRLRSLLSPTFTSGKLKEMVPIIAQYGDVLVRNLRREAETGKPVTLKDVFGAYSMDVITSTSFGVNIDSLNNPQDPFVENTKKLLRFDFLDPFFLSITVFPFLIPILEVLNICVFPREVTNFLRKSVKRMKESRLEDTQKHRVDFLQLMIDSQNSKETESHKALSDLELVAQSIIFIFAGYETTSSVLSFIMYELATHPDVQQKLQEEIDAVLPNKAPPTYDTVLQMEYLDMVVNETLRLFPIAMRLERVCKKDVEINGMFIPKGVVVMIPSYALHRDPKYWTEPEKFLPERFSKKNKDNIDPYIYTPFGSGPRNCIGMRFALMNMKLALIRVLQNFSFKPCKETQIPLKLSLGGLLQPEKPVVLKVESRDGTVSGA

[7] = biological target: T4, Rac GTPase-activating protein 1 (Homo sapiens, UniProt Q9H0H5); assay: MgcRacGAP GTPase-activating activity inhibitors, confirmation, biochemical, ADP Hunter fluorescence, primary and confirmatory (AID 624330); format: functional
T4 sequence (Q9H0H5 whole entry): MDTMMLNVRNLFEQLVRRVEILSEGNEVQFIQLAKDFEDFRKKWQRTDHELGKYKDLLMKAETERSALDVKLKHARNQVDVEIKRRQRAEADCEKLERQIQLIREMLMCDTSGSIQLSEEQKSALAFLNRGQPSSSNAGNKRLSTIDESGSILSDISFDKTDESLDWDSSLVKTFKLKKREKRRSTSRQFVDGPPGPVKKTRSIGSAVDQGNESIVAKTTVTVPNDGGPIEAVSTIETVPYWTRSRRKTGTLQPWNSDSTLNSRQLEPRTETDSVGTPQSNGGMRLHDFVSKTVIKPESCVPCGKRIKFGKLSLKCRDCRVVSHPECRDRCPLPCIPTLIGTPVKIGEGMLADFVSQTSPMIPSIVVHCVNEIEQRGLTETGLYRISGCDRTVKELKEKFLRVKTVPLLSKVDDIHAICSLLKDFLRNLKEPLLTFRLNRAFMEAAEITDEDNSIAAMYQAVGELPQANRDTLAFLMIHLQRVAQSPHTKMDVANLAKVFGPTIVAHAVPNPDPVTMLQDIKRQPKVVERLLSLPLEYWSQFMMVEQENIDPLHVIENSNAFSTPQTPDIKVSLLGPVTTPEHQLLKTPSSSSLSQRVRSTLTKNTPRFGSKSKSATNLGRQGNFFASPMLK

[8] = inhibitors of intracellular T. cruzi replication, confirmation, NIH3T3 host cells, beta-gal luminescence (AID 2044); format: functional, cell-based;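 also: intracellular parasites grown in NIH/3T3 mouse fibroblasts as host cells; luminescent beta-galactosidase reporter signal from transgenic T. cruzi replicating inside host cells; inhibitors lower the luminescence signal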
[9] = cytotoxicity toward NIH3T3 fibroblasts, dose response, counter-screen, cell-based, ATP luminescence, mouse fibroblasts (AID 2010); format: functional;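 also: cells exposed to compound for about 90 hours before reading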
[10] = tested on: Streptococcus sp. 'group A'; assay: growth inhibition of control SK(-) GAS strain, dose response, counter-screen for streptokinase expression inhibitor project, luminescence, kanamycin, BacTiterGlo, confirmation (AID 1900); format: functional, organism-based
Streptokinase A = biological target: T5, Streptokinase A (Streptococcus pyogenes serotype M1, UniProt P10520); assay: S. pyogenes streptokinase expression inhibitors, potency, dose response, plasminogen activation absorbance, OD405 (AID 1914); format: functional, Streptococcus pyogenes M1 GAS;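 also: secreted streptokinase activity via plasminogen activation per viability signal from cell pellet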
T5 sequence (P10520 whole entry): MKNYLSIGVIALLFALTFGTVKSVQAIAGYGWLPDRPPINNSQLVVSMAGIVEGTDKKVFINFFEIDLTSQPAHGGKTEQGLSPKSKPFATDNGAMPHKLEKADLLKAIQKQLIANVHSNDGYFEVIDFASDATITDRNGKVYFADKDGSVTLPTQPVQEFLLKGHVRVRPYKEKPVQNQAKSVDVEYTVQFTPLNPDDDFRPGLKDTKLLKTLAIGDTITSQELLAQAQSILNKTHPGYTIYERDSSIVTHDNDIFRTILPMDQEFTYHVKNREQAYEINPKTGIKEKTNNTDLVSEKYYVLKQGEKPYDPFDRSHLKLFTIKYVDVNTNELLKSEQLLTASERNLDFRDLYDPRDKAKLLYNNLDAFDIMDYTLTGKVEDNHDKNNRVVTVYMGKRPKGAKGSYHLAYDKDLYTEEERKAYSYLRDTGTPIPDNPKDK

Streptococcus = assay: Group A Streptococcus viability loss, dose response, counter-screen for streptokinase expression inhibitor project, luminescence, BacTiterGlo (AID 1915); format: functional, organism-based;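 also: potency for reduction of bacterial viability or growth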

## COc1ccc(CN2CCNC(=O)C2CC(=O)N(C)Cc2ccncn2)c(OC)c1 (stereo not given)
[1]
  AC50: 89.1 µM (active)
Protein RecA
  EC50: 24.7 µM (active)

## CCn1cnc2c([N+](=O)[O-])c(NS(=O)(=O)c3ccc(C)cc3)ccc21
BJ [2]
  EC50: > 150 µM (not active)
BJ [3]
  EC50: > 150 µM (not active)
BJ [4]
  EC50: > 150 µM (inconclusive)
[5]
  EC50: > 150 µM (not active)

## COc1cc(C2C(C#N)=C(N)Oc3[nH]nc(C)c32)cc2c1OCO2 (stereo not given)
[1]
  AC50: 2.11 µM (active)
Protein RecA
  EC50: 1.38 µM (active)

## COc1ccc(/C=C2/C(=O)N(c3ccccc3)N=C2C)c(OC)c1
[1]
  AC50: 3.87 µM (active)
Protein RecA
  EC50: 2.64 µM (active)

## O=C(NC12CC3CC(CC(C3)C1)C2)c1ccc(COc2ccc(Cl)cc2[N+](=O)[O-])o1
[6]
  CC50: 32.4 µM (active)
Cytochrome P450 2D6
  AC50: 28.2 µM (inconclusive)
Cytochrome P450 1A2
  AC50: 14.1 µM (inconclusive)
Cytochrome P450 3A4
  AC50: 15.8 µM (inconclusive)

## Cc1ccc(-n2nc3c(=O)n(CCCC(=O)NCc4ccccc4Cl)nc(C)c3c2C)cc1
[6]
  CC50: > 50 µM (active)

## CCCCCN1N=C(C)CC1=O
[1]
  AC50: 6.18 µM (active)
Protein RecA
  EC50: 2.79 µM (active)

## CN(CC(=O)Nc1ccc(Cl)c(C(F)(F)F)c1)C(=O)c1cc(-c2ccncc2)nc2ccccc12
[6]
  CC50: 20 µM (active)

## O=C(Oc1ccc(-c2nnco2)cc1)c1ccco1
[1]
  AC50: 17.6 µM (active)
Protein RecA
  EC50: 15.3 µM (active)

## COc1ccc(/C=C2\SC(=S)N(CC(=O)OCC(=O)Nc3cc(Cl)cc(Cl)c3)C2=O)cc1
BJ [2]
  EC50: > 150 µM (not active)
BJ [3]
  EC50: > 150 µM (not active)
BJ [4]
  EC50: > 150 µM (not active)
[5]
  EC50: > 150 µM (not active)

## COc1ccc(-c2nc(-c3cc([N+](=O)[O-])ccc3C)c(-c3ccccc3)[nH]2)cc1O
[6]
  CC50: 15.1 µM (active)

## CCOC(=O)c1sc(Nc2ccc(Br)cc2)nc1C
[6]
  CC50: 27.5 µM (active)

## COc1cc(/C=C(\C#N)C(=O)c2c[nH]c3ccccc23)cc(OC)c1O
[1]
  AC50: 1.26 µM (active)
Protein RecA
  EC50: 1.18 µM (active)
[7]
  IC50: 43.6 µM (active)

## CC(=O)NC(c1ccc(Cl)cc1)c1c(O)ccc2ccc(O)cc12 (stereo not given)
[1]
  AC50: > 120 µM (inactive)
Protein RecA
  EC50: 4.61 µM (active)

## Cc1cccc(C2c3[nH]c4ccccc4c3CCN2Cc2cccn2-c2ncccn2)c1 (stereo not given)
[6]
  CC50: 20.4 µM (active)
[8]
  EC50: 0.647 µM (active)
[9]
  EC50: 20.7 µM (active)

## CCOC(=O)C1CCC2(CC1)C(C#N)=C(N)Oc1[nH]nc(C)c12 (stereo not given)
[1]
  AC50: 53.1 µM (active)
Protein RecA
  EC50: > 380 µM (inactive)

## O=C(CN1C(=O)S/C(=C\C=C\c2ccccc2)C1=O)Nc1ccccc1C(=O)O
[10]
  EC50: 5.14 µM (active)
Streptokinase A
  EC50: 4.37 µM (active)
Streptococcus
  EC50: 14.9 µM (active)
[1]
  AC50: 8.47 µM (active)
Protein RecA
  EC50: 10.8 µM (active)

## COc1cc2c(C(=O)N3CCOCC3)c(CSc3ccccc3)n(C)c2cc1Br
[6]
  CC50: 20.7 µM (active)

## Cc1noc(O)c1N=Nc1ccc2[nH]c(O)nc2c1
[6]
  CC50: 22.4 µM (active)

## CCc1ccc(NS(=O)(=O)c2ccc3ncc(C(=O)N4CCc5ccccc54)c(O)c3c2)cc1
[6]
  CC50: > 50 µM (active)

## CO/C(O)=C1/C(C)=NC2=C(C(=O)CCC2)C1c1cn(Cc2ccc(Br)cc2)nc1-c1ccccc1 (stereo not given)
[6]
  CC50: 17.4 µM (active)
